Values of other authors, collected in patent publication US20150328277A1 (Teva Pharmaceutical Industries, Ltd., priority 2012, published 2015).
Read-outs that look alike come from different tables or passages of the source.

Columns and labels:
[1] = system: relapsing multiple sclerosis; conditions: administered orally; clinical trial
[2] = system: multiple sclerosis; conditions: 20 mg/day subcutaneous (s.c.); MS patients
[3] = system: experimental autoimmune encephalomyelitis (EAE); conditions: orally administered; mice
[4] = system: experimental autoimmune encephalomyelitis (EAE); conditions: orally administered; rats

L-glutamic acid polymer with L-alanine, L-lysine, L-tyrosine, acetate (salt) [glatiramer acetate]
relapse rate or other clinical MRI parameters of disease activity [1]: did not affect relapse rate or other clinical MRI parameters of disease activity
total number of enhancing lesions as measured by MRI [2]: reduce the total number of enhancing lesions
induction of EAE [3]: inhibited the induction of experimental autoimmune encephalomyelitis (EAE)
induction of EAE [4]: inhibited the induction of experimental autoimmune encephalomyelitis (EAE)
